Like-named read-outs stand apart in the source and are kept apart here.
Key:
Male Wistar rats = experiment: Sleep-wakefulness, locomotor activity and body temperature monitoring (SCORE-2000), treatment at CT-18
Histamine, H1 = Histamine, H1 (Homo sapiens, UniProt P35367); experiment: H1 binding assay by displacement of known standards
Description: (§1) The following binding assays were performed on the Series 11 compounds described above by displacement of known standards from the H1, M1, M2, and M3 receptors, wherein H1 is a histamine receptor, and M1, M2, and M3 are muscarinic receptors.
The binding studies against the histamine receptor, H1, indicate binding affinity, and therefore the results of the binding assays are an indication of the activity of the compound. […]
The following binding assays were performed on additional compounds described above by displacement of known standards from the H1, M1, M2, and M3 receptors, wherein H1 is a histamine receptor, and M1, M2, and M3 are muscarinic receptors.
The binding assays for H1 was the same as described in Example 10 and the M1, M2, and M3 binding assays are the same as those described in Example 10 for human recombinant expressed cells.

muscarinic receptors = experiment: Muscarinic receptor binding, M1, M2 and M3 taken together in the conclusions
Description: as §1
In addition, the binding studies against the muscarinic receptors indicate the extent to which the compounds bind the muscarinic receptors, responsible for anti-cholinergic activity of the compound. Binding to muscarinic receptors results in several undesired side effects of many known antihistamines, e.g., dry-mouth. A decrease in the binding of the compounds to the M1-M3 receptors, relative the binding of the compound to the H1 receptor, is an indication of the greater specificity of the compound for the histamine receptor over the muscarinic receptor.

[1] = read-out: Receptor Binding Data (Ki nM) H1
[2] = 10 mg/kg or 30 mg/kg, intraperitoneal
[3] = 30 mg/kg and 10 mg/kg, intraperitoneal, CT-18

Sequence of Histamine, H1 (P35367 whole entry): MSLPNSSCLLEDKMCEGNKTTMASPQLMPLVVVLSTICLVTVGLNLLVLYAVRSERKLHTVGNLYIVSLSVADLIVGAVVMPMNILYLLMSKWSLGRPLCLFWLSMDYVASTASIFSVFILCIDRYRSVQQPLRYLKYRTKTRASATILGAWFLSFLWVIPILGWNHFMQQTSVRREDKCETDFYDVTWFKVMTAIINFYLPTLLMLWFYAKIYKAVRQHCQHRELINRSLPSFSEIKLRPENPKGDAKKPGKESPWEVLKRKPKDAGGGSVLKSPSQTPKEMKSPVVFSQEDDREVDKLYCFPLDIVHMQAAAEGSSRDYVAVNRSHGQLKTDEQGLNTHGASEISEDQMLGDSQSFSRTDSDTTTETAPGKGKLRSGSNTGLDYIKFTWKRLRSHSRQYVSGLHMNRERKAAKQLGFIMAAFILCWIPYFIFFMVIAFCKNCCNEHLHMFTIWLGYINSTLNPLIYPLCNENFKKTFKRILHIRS

Structure (SMILES) | Average Bout-Length (Male Wistar rats; 30 mg/kg PO, at CT-18) [min] | Duration (Male Wistar rats; 30 mg/kg PO, at CT-18) [h] | Maximum Bout Length (Male Wistar rats; 30 mg/kg PO, at CT-18) [min] | NREM Accum. (Male Wistar rats; 30 mg/kg PO, at CT-18) [min] | NREM Peak (Male Wistar rats; 30 mg/kg PO, at CT-18) [%/hr] | Onset (Male Wistar rats; 30 mg/kg PO, at CT-18) [min] | IC50 (Histamine, H1) [nM] | Ki (Histamine, H1; read-out: H1 Ki) [nM] | Ki (Histamine, H1; [1]) [nM] | also measured
Cl.O=C(O)CCN1CCC(=C(c2ccccc2)c2ccccc2)CC1 [Series 11a] | 11.2 | 6 | 18.7 | 41.2 | 67.3 | 85 | 308 | 119 |  | Rebound Insomnia (Male Wistar rats; 30 mg/kg PO, at CT-18): Minor
O=C(O)CCCN1CCC(=C2c3ccccc3COc3ccccc32)CC1 [Series 73a] | 14.5 |  | 27.6 | 47.3 | 62.2 | 45 |  |  | 42.8 | 
CC(C)COC(=O)CCN1CCC(=C(c2ccccc2)c2ccccc2)CC1 [Series 11e, Isobutyl 3-[4-(diphenylmethylidene)piperidin-1-yl]propanoate] | 8.3 | 6 | 19.1 | 49.6 | 59.6 | 80 | 718 | 279 |  | 
Cc1ccc(/C(=C\CN2CCCC2)c2cccc(C(=O)O)n2)cc1 [Series 16a] | 5.4 | 5 | 11.8 | 20.7 | 57.9 | 180 |  |  | 43.9 | 
CC(C)(CN1CCC(=C2c3ccccc3COc3ccccc32)CC1)C(=O)O [Series 74a] | 9.9 | 5 to 6 | 22.3 | 43.4 | 64.4 | 70 to 80 |  |  | 109 | 
O=C(O)CN1CCC(=C2c3ccccc3COc3ccccc32)CC1 [Series 7a] | 7.3 | 5 to 6 | 16.9 | 29.5 | 56.9 | 130 |  |  | 55.1 | 
Cl.O=C(O)CCN1CCC(OC(c2ccccc2)c2ccccc2)CC1 [Series 6a, 3-[4-(diphenylmethoxy)piperidin-1-yl]propanoic acid hydrochloride] | 7.0 | 5 | 12.8 | 26.5 | 56.4 | 65 |  |  | 56.1 | 
CC(C)(CCN1CCC(=C2c3ccccc3COc3ccccc32)CC1)C(=O)O [Series 75a] | 6.8 | 4 | 13.6 | 33.9 | 58.8 | 70 to 85 |  |  | 47.9 | Average Bout-Length (Male Wistar rats; 45 mg/kg PO, at CT-18): 10.8 min; Duration (Male Wistar rats; 45 mg/kg PO, at CT-18): 5 h; Maximum Bout Length (Male Wistar rats; 45 mg/kg PO, at CT-18): 19.4 min; NREM Accum. (Male Wistar rats; 45 mg/kg PO, at CT-18): 33.9 min; NREM Peak (Male Wistar rats; 45 mg/kg PO, at CT-18): 58.2 %/hr; Onset (Male Wistar rats; 45 mg/kg PO, at CT-18): 70 to 85 min
O=C(CCN1CCC(=C(c2ccccc2)c2ccccc2)CC1)OC1CCOCC1 [Series 11i] |  |  |  |  |  |  | 200 | 87.8 |  | 
CC(C)OC(=O)CN1CCC(=C2c3ccccc3COc3ccccc32)CC1 [dox7d-oxalate] | 12.9 | 5 | 25.0 | 54.1 | 76.9 | 85 |  |  | 198 | 
Cc1ccc(-c2nc3ccc(C)cn3c2CC(=O)N(C)C)cc1 [Ambien, Zolpidem, reference compound] |  |  |  |  |  |  |  |  |  | Average Bout-Length (Male Wistar rats; 30 mg/kg IP, at CT-18): 5.8 min; Duration (Male Wistar rats; 30 mg/kg IP, at CT-18): 3 to 4 h; Maximum Bout Length (Male Wistar rats; 30 mg/kg IP, at CT-18): 13.1 min; Motor Inhibition (Male Wistar rats; 30 mg/kg IP, at CT-18): YES; NREM Accum. (Male Wistar rats; 30 mg/kg IP, at CT-18): 58.7 min; NREM Peak (Male Wistar rats; 30 mg/kg IP, at CT-18): 58.2 %/hr; Onset (Male Wistar rats; 30 mg/kg IP, at CT-18): 5 min; REM Inhibition (Male Wistar rats; 30 mg/kg IP, at CT-18): YES; Rebound Insomnia (Male Wistar rats; 30 mg/kg IP, at CT-18): YES
O=C(CCN1CCC(=C(c2ccccc2)c2ccccc2)CC1)OC1CCOC1 (centres unmarked) [Series 11h] |  |  |  |  |  |  | 201 | 88.3 |  | difference in binding affinity towards the muscarinic receptors between the enantiomeric compounds (muscarinic receptors): do show a substantial difference; difference in binding affinity towards the H1 receptor between the enantiomeric compounds (Histamine, H1): do not result in a substantial difference
Cl.O=C(O)CCCN1CCC(OC(c2ccccc2)c2ccccc2)CC1 [Series 53a] | 4.3 | 4 | 9.1 | 17.4 | 49.2 | 30 |  |  | 16.1 | 
CC(C)OC(=O)CCN1CCC(=C(c2ccccc2)c2ccccc2)CC1 [Series 11d, Isopropyl 3-[4-(diphenylmethylidene)piperidin-1-yl]propanoate] | 11.0 | 6 | 20.1 | 55.5 | 58.5 | 135 | 378 | 147 |  | 
O=C(CCN1CCC(=C(c2ccccc2)c2ccccc2)CC1)OC1CCCC1.O=C(O)C(=O)O [Series 11f, Cyclopentyl 3-[4-(diphenylmethylidene)piperidin-1-yl]propanoate, oxalic acid salt] |  |  |  |  |  |  | 1070 | 416 |  | REM sleep inhibition (Male Wistar rats; [2]): did not, however, produce; Rebound Insomnia (Male Wistar rats; [2]): did not, however, produce; time post-treatment for which total sleep time was increased (Male Wistar rats; [3]): 3 h; total sleep time (Male Wistar rats; [3]): significantly increased; cumulative effect on total sleep time (TST) during the initial 5 hours post-treatment, relative to baseline (Male Wistar rats; 30 mg/kg versus Zolpidem 10 mg/kg): induced more TST than Zolpidem; sleep continuity, as assessed by sleep bout length (Male Wistar rats; 10 and 30 mg/kg, intraperitoneal, relative to vehicle control): increased sleep continuity; soporific effects (Male Wistar rats; administered at CT-18, intraperitoneal bolus): robust soporific effects; locomotor activity (Male Wistar rats; intraperitoneal, CT-18): reduction; sleep inducing effects compared to therapeutic doses of Ambien (Zolpidem) (Male Wistar rats; intraperitoneal, CT-18): equal or better; increase of sleep time and sleep continuity (sleep bout lengths): dependence on dose (Male Wistar rats; laboratory rats, 10 and 30 mg/kg): dose-dependent
